Active and inactive are the calls of the source. The rule behind the calls is not given here.
Experiments:
[1] = test system: Geobacillus stearothermophilus; assay: Inhibition of Bacillus stearothermophilus alpha-glucosidase type IV at 100ug/mL
[2] = test system: Geobacillus stearothermophilus; assay: Inhibition of Bacillus stearothermophilus alpha-glucosidase type IV at 10ug/mL
PC-3 = assay: Cytotoxicity against human PC3 cells; format: functional, cell-based
[3] = Inhibition of Bacillus stearothermophilus alpha-glucosidase type IV; set-up: species or system Geobacillus stearothermophilus

| IC50 [3] [nM] | SMILES | inhibition [1] [%] | Activity [2] | IC50 (PC-3) [µg/mL] |
| --- | --- | --- | --- | --- |
|  | O=c1cc(-c2ccc(O[C@@H]3O[C@H](CO)[C@@H](O)[C@H](O)[C@H]3O)cc2)oc2cc(O)cc(O)c12 | 18.7 | inactive |  |
|  | CCCCCCCCCC[C@@H]1c2c(c([C@@H]3O[C@H](CO)[C@@H](O)[C@H](O)[C@H]3O[C@@H]3O[C@@H](C)[C@H](O)[C@@H](O)[C@H]3O)c(O)c3c(=O)cc(-c4ccc(O)cc4)oc23)OO[C@@]12C(=O)O[C@H](C)C2=O [APIGENOSYLIDE A] |  |  | > 30 |
| 33 | C[C@H]1O[C@H](O[C@H]2[C@H](O)[C@@H](O)[C@@H](O[C@H]3[C@H](O)[C@@H](O)C(O)O[C@@H]3CO)O[C@@H]2CO)[C@H](O)[C@@H](O)[C@@H]1N[C@H]1C=C(CO)[C@@H](O)[C@H](O)[C@H]1O (stereo partly drawn) [ACARBOSE] |  |  |  |
|  | CCCCCCCC[C@@H]1c2c(c([C@@H]3O[C@H](CO)[C@@H](O)[C@H](O)[C@H]3O[C@@H]3O[C@@H](C)[C@H](O)[C@@H](O)[C@H]3O)c(O)c3c(=O)cc(-c4ccc(O)cc4)oc23)OO[C@@]12C(=O)O[C@H](C)C2=O | 93.7 | inactive |  |
|  | CCCCCCCCCC[C@@H]1c2c(cc(O)c3c(=O)cc(-c4ccc(O[C@@H]5O[C@H](CO)[C@@H](O)[C@H](O)[C@H]5O)cc4)oc23)OO[C@@]12C(=O)O[C@H](C)C2=O | 64.7 | inactive |  |

From ChEMBL document CHEMBL1152443, “Three adducts of butenolide and apigenin glycoside from the leaves of Machilus japonica” (J Nat Prod, 2009)
